Experimental data taken from ChEMBL document CHEMBL3860060, “Discovery and Optimization of 1-Phenoxy-2-aminoindanes as Potent, Selective, and Orally Bioavailable Inhibitors of the Na+/H+ Exchanger Type 3 (NHE3)” (J Med Chem, 2016).
The source made the active and inactive calls. No cut-off for these calls is given here.

Experiments:
CYP2D6 [1] = target: T1, CYP2D6 (Homo sapiens, UniProt P10635); experiment: Inhibition of CYP2D6 in pooled human hepatic microsomes assessed as remaining enzyme activity at 0.225 uM using […] substrate in presence of NADPH; format: ADME; details: pooled human liver microsomes, probe […], read-out: Activity
Sus scrofa [2] = experiment: Inhibition of upper airway collapsibility in urethane-chloralose anesthetized pig at 3 mg/kg, id after 4 hrs; format: functional, organism-based
Homo sapiens [3] = species: Homo sapiens; experiment: Inhibition of PDE4 (unknown origin) at 10 uM
Sus scrofa [4] = experiment: Inhibition of upper airway collapsibility in urethane-chloralose anesthetized pig at 1 mg/kg, id after 4 hrs; format: functional, organism-based
Homo sapiens [5] = species: Homo sapiens; experiment: Inhibition of GABA-gated chloride channel (unknown origin) at 10 uM
Cytochrome P450 2D6 = Cytochrome P450 2D6 (Homo sapiens, UniProt P10635)
Description: Inhibition of CYP2D6 in pooled human hepatic microsomes using dextromethorphan substrate in presence of NADPH

CYP2D6 [6] = target: T1, CYP2D6; experiment: Inhibition of CYP2D6 in pooled human hepatic microsomes at 10 uM using dextromethorphan substrate in presence of NADPH; format: ADME; details: pooled human liver microsomes, probe dextromethorphan
[7] = target: T2, Sodium/hydrogen exchanger 3 (Homo sapiens, UniProt P48764); experiment: Inhibition of human NHE3 expressed in LAP1 cell assessed as intracellular pH recovery measured for 2 mins by CECF-AM dye based FLIPR assay
T2 sequence (P48764 whole entry): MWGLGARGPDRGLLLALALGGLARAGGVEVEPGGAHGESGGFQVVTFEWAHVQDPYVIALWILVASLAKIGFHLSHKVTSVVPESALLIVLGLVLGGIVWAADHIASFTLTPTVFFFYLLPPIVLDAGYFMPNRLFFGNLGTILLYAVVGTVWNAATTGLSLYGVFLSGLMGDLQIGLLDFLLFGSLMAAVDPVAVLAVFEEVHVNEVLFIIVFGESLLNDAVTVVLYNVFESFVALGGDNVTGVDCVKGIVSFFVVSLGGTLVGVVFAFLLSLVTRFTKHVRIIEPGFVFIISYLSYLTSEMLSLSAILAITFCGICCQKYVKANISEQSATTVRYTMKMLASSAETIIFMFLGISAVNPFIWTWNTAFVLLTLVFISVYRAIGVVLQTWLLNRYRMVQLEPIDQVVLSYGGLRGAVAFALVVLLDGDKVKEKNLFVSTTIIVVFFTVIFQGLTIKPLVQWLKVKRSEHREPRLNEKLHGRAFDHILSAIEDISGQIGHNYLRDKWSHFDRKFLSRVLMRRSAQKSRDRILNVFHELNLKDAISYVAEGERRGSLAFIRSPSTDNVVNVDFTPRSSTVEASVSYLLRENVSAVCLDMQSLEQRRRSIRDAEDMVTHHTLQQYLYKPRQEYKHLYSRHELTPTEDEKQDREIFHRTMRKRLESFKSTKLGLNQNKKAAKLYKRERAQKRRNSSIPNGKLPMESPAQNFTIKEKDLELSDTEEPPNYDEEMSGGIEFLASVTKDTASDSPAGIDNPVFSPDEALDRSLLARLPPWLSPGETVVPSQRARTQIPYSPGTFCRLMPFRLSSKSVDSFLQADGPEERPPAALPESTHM

[8] = Permeability in human Caco2/TC7 cells assessed as total flux at 20 uM incubated for 2 hrs by LC-MS/MS method; format: ADME, cell-based; details: Caco-2, read-out: permeability
Cytochrome P450 3A4 = Cytochrome P450 3A4 (Homo sapiens, UniProt P08684); experiment: Inhibition of CYP3A4 in pooled human hepatic microsomes using testosterone substrate in presence of NADPH; format: ADME, Liver
Cytochrome P450 3A4, sequence (P08684 whole entry): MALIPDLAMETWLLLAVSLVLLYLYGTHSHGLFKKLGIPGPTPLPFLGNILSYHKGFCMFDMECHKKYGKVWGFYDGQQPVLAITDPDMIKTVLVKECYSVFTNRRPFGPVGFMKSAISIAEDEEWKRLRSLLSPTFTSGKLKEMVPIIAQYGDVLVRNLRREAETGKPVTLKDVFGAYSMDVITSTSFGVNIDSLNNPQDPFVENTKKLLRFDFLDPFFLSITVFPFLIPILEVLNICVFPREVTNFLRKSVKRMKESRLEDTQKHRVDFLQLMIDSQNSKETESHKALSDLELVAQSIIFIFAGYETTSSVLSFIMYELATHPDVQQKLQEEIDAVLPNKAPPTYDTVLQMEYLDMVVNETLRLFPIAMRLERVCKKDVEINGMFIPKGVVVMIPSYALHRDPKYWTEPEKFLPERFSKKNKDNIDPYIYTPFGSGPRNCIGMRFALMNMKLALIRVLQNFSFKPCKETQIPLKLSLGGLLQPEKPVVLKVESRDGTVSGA

Cytochrome P450 2D6, sequence (P10635 whole entry): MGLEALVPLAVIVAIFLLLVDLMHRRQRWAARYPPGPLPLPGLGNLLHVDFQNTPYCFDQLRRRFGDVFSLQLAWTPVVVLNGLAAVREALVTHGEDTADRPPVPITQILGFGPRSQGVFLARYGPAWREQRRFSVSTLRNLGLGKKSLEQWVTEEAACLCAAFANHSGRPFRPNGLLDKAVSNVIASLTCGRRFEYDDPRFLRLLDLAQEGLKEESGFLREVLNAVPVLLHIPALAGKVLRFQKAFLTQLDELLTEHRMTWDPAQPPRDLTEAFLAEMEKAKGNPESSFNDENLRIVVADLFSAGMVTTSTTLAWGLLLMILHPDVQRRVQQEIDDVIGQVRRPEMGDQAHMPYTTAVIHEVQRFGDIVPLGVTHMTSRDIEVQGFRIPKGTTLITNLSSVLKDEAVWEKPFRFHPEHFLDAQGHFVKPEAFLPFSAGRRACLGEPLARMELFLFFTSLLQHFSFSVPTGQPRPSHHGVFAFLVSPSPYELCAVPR
T1 sequence (P10635 whole entry): as above

Row | activity at 0.225 µM (CYP2D6 [1]) [%] | inhibition (Homo sapiens [3]) [%] | inhibition (Homo sapiens [5]) [%] | IC50 (Cytochrome P450 2D6) [µM] | inhibition at 10 µM (CYP2D6 [6]) [%] | IC50 [7] [nM] | Papp at 2 h, 20 µM [8] [×10⁻⁶ cm/s] | IC50 (Cytochrome P450 3A4) [µM] | Compound | inhibition (Sus scrofa [2]) | inhibition (Sus scrofa [4])
1 | 21 |  |  |  |  |  |  |  | C=C[C@H]1C[N@@]2CC[C@H]1C[C@@H]2[C@@H](O)c1ccnc2ccc(OC)cc12 [QUINIDINE] |  | 
2 |  | 54 | 55 |  |  |  |  |  | Cc1nnc(C)n1-c1ccc(O[C@H]2c3cc(Cl)cc(Cl)c3C[C@@H]2N2CC[C@@H](O)C2)c(F)c1 [listing 1 of 2 here] | Active | Active
3 |  |  |  | > 10 | 22 | 17 | 0.2 |  | Cc1nnc(C)n1-c1ccc(O[C@H]2c3cc(Cl)cc(Cl)c3C[C@@H]2N2CCCN(C)CC2)cc1 |  | 
4 |  |  |  | > 10 | 17 | 34 | 2.8 | > 50 | Cc1nnc(C)n1-c1ccc(O[C@H]2c3cc(Cl)cc(Cl)c3C[C@@H]2N2CC[C@@H](O)C2)c(F)c1 [listing 2 of 2 here] |  | 
5 |  |  |  | > 10 | 25 | 23 | 0.3 |  | Cc1nnc(C)n1-c1ccc(O[C@H]2c3cc(Cl)cc(Cl)c3C[C@@H]2N2CCCNCC2)cc1 |  | 
